From patent publication US6613767B1, “Stable aqueous folinate solution” (Pharmachemie B.V., priority 1994, dated 2003)

Experiments:
[1] = normal refrigerator temperature of approximately 4° C.; cited from earlier work
[2] = Accelerated shelf life tests of sodium folinate injection, 40° C./75% RH; assay type: physicochemical; details: during autoclaving (121° C. for 7 min)
Experimental: Tests were carried out with sodium folinate bulk solutions of 200 ml containing 25, 100, 250 and 400 mg sodium folinate/ml respectively as indicated in Table 1. Each bulk solution was prepared with a 2% excess of sodium folinate, because during autoclaving ca. 2% folinic acid decomposes. Subsquently, 2.15 ml of each formulated solution was used to fill 2R bottles to the exclusion of air. Afterwards, the bottles were then autoclaved at 121° C. for 7 min. The bottles were thereafter stored at 40° C./75% RH (RH=relative humidity). The following analyses were carried out initially at the beginning of the test and after two weeks:
oxygen percentage in the headspace
content of folinic acid and decomposition products.
The results are summarized in the Tables 2-5 for the accelerated shelf life tests of the sodium folinate injection preparation having a content of sodium folinate of 25 mg/ml, 100 mg/ml, 250 mg/ml and 400 mg/ml, respectively. The bottles were stored at 40° C./[…] during the two week time period for the shelf life tests.

Row | Folinic acid decomposed during autoclaving [2] | Compound | Concentration at which crystallization takes place [1] [µg/mL]
1 |  | Nc1nc(=O)c2c([nH]1)NCC(CNc1ccc(C(=O)N[C@@H](CCC(=O)[O-])C(=O)[O-])cc1)N2C=O.[Ca+2] (some centres unmarked) [Calcium folinate, calcium folinate] | ≥ 15000
2 | ca. 2% | Nc1nc(=O)c2c([nH]1)NC[C@@H](CNc1ccc(C(=O)N[C@@H](CCC(=O)O)C(=O)O)cc1)N2C=O [folinic acid] | 
